The subject of data set [1] is protein disulfides in the mouse lenses. Nature of the data set: Decrease in disulfide bonds: protein SH / SS groups in lens homogenates by differential fluorescent alkylation. The format is cell-based. The method, then:
FIG. 5 depicts a scattergram of the percent of the total protein SH groups in disulfide bonds. Free SH groups were alkylated with 4-acctamido-4′-maleimidylstilbcne-2,2′-sulfonic acid (c, 1 μM, 5 μM, 9.6 μM, 50 μM, 96 μM) or 7-diethylamino-3-(4′maleimidylphenyl)-4-methyl coumarin (500 μM, and 500 μM c). Following removal of the first alkylating agent, the S—S bonds were reduced and alkylated with fluorescein-5-maleimide. Absorption spectra were used to calculated total protein (A280 nm), free protein SH (A322 or A384), and protein SS (A490) using the appropriate extinction coefficients. The symbol $ indicates statistically significant difference of mean with mean of control (c, p≤0.05).
Mouse lenses were homogenized in a denaturing buffer containing a fluorescent alkylating agent to modify the free SH groups. After removing the alkylating agent homogenates were reduced and alkylated with a different fluorescent alkylating agent. Absorption spectra of the modified proteins were used to calculate free protein SH and protein SS groups.

The subject of data set [2] is mouse lenses. Nature of the data set: Increase in elasticity: change in lens diameter (ΔD) under coverslip load in lens organ culture. The class given is cell-based. As to conditions: lipoic acid at concentrations ≥9.6 μM, 8-15 hours incubation, vs control; p<0.0001.
Method: The relative change in Young's modulus (E) can be calculated as the cubic value derived from the ΔD of the control divided by the ΔD of the experimental or E fractional change=(ΔD con/ΔDexp)^3. Pairs of mouse lenses were incubated in medium 200 supplemented with an antibiotic, an antimycotic, in the presence or absence of lipoic acid (concentrations ranging from 0.5 μM to 500 μM) for 8-15 hours. Each lens was removed from medium, weighed, and photographed on a micrometer scale. A coverslip of known weight (0.17899±0.00200 g) was placed on the lens, and the lens was photographed again on the micrometer scale. The diameter of each lens with and without the coverslip was determined from the photographs. The change in lens diameter produced by the force (coverslip) was computed ΔD=(Dwithcoverslip−Dwithoutcoverslip).
The conditions of data set [3]: cited from earlier work.

Turning to `O=C(O)CCCCC1CCSS1` (stereo not shown) [lipoic acid, 5-(1,2-dithiolan-3-yl)pentanoic acid], in data set [1] (500 μM lipoic acid vs 500 μM control, p=0.027), the “percent of total protein SH groups in disulfide bonds, mean vs 500 μM control” value is reported as “significantly different”. Moreover, the “protein disulfides (percent of total protein SH groups in disulfide bonds)” value in data set [1] (lipoic acid at concentrations ≥9.6 μM, vs control, p≤0.05) was “statistically significant decrease”. Besides, the “change in lens diameter produced by the force (coverslip), ΔD” value in data set [2] was “statistically significant increase”.
In the case of `N[C@@H](CSSC[C@H](N)C(=O)O)C(=O)O` [cystine, 3,3′-disulanedylbis(2-aminopropanoic acid)], the “limit of solubility in aqueous solution” value in data set [3] is 20 µM.

Source of the values: patent US10039743B2, “Method of treating presbyopia using dithiol compounds and their derivatives” (Encore Health, LLC, priority 2009, dated 2018).
